The values below come from patent US12564580B2, “Mitochondria-targeted isoketal/isolevuglandin scavengers and uses thereof” (Vanderbilt University, priority 2020, dated 2026).

Data set [1] relates to aortic mitochondrial proteins (SOD2, CypD, NDUFS1). In words: Western blot analysis of mitochondrial acetylation and isoLG adducts in aortas of angiotensin II-infused mice. Format: in vivo, mouse. The text has this:
FIGS. 11A-D show Western blot analysis of mitochondrial acetylation in aortas isolated from Sham and angiotensin II-infused mice treated with mito2HOBA. (A) Typical Western blots isoLG-protein adducts (D11 ab), Sirt3, Acetyl-Lysine, SOD2-K68-Acetylation, CypD Acetylation, isoLG adduct with complex I NDUFS1 75 KDa subunit and mitochondrial complex I; (B) Sirt3 levels; (C) mitochondrial protein lysine acetylation; (D) SOD2-K68-Acetyl levels; and (E) CypD-Acetyl levels. Mice supplied with mito2HOBA (m2H) in drinking water (0.1 g/L) and angiotensin II (osmotic pump, 0.7 mg/kg/day) for 14 days. Data were normalized by Complex I levels (Sham is 100%). Results are mean±SEM (n=5). *P<0.01 vs Sham, **P<0.01 vs angiotensin II (Ang II).
Dihydroethidium (DHE) and MitoSOX superoxide probes were supplied by Invitrogen (Grand Island, NY). Sirt3 (54905) antibodies were from Cell Signaling. Acetyl-K68-SOD2 (ab137037), complex I NDUFS1 75 kDa subunit (ab22094) and CypD (ab110324) and GAPDH (ab8245) antibodies were from Abcam. SOD2 (sc30080) antibodies were obtained from Santa Cruz Biotechnology. Acetyl-lysine antibodies (ab3839) were provided by Millipore-Sigma. D11, an isoLG-lysyl adducts-specific scFv antibody, has been previously characterized. All antibodies were used at 1000-fold dilution. […] All other reagents were obtained from Sigma (St Louis, MO).

The nature of another data set: Water solubility. Format: physicochemical. The source says: (§1) Mito2HOBA is a water-soluble compound which can be supplied in the media and provided to animals in the drinking water.
The next data set relates to complex I/complex II. The following applies: kidney mitochondria after LPS treatment, mito2HOBA supplementation.
For data set [2], the system named is human aortic endothelial cells (HAEC). In words: Cardiolipin oxidation in human aortic endothelial cells stimulated with angiotensin II plus TNFα (LC/MS). The following applies: 50 nM. Format: cell-based. The procedure:
FIGS. 9A and B show the effect of mito2HOBA on mitochondrial superoxide and cardiolipin oxidation in human aortic endothelial cells induced by angiotensin II plus TNFα. (A) Mitochondrial superoxide was measured by HPLC analysis of mitoSOX-superoxide specific product, mito-2-hydroxyethidium (Mito-2OH-Et+). […] (B) Cardiolipin oxidation induced by Angiotensin II+TNFα measured my LC/MS. […] Data are mean±SEM. *P<0.01 vs Control, **P<0.01 vs Angiotensin II+TNFα (n=4).
Cardiolipin oxidation in human aortic endothelial cells was measured by Liquid Chromatography-Mass Spectrometry (LC/MS) as described previously.^44 The extracted lipid fraction was separated online by UPLC using a Waters Acquity UPLC system (Waters Corp., Milford, MA). Mass Spectrometry analysis was performed on a Thermo Quantum Ultra triple quadrupole mass spectrometer (Thermo Scientific Inc., San Jose, CA, USA).
Human aortic endothelial cells (HAEC) were purchased from Lonza (Chicago, IL) and cultured in EGM-2 medium supplemented with 2% FBS but without antibiotics. On the day before the study, the FBS concentration was reduced to 1%.

The test system of data set [3] is LPS-injected C57BL/6J mice. In words: Survival in LPS model of sepsis. The class given is in vivo, mouse. The text has this: All experimental procedures were approved by Vanderbilt and Mercer Institutional Animal Care and Use Committees. The use of LPS is well-established model of bacterial sepsis in rodents (1-3). The concentrations of LPS that can be used to induce sepsis in mice depend on many factors (source of LPS, age/size, and strains of animals, desired time of response, target of interest, etc.) and may vary between different manufactures. To test the protective properties of mito2HOBA, the present inventors used LPS from E. coli O111:B4 (Sigma L8274). […] The same lot of LPS was used throughout entire study.

Data set [4] can be described thus: Mass spectrometric analysis of mitochondria from mice given mito2HOBA in drinking water. The class given is in vivo.
Source text: as §1

Data set [5] deals with SOD2 acetylation in human arterioles. Description: SOD2 acetylation in human arterioles treated ex vivo (Western blot). Format: cell-based. The following applies: arterioles from hypertensive subjects, 0.5 μM, 24 hours, DMEM. The procedure: FIGS. 8A-D show Western blots of mitochondrial isoLGs (A) in human arterioles from normotensive and hypertensive subjects (n=5), (B) development of mitochondria-targeted isoLG scavenger mito2HOBA and (C, D) SOD2 acetylation in human arterioles isolated from normotensive and hypertensive subjects and treated ex vivo with mito2HOBA (0.5 μM, 24 hours, DMEM). Data were normalized by Complex I levels (Sham is 100%). Data are mean±SEM. *P<0.01 vs Normotensive Sham, **P<0.01 vs Hypertensive (n=5).
Arterioles (100 to 200-μm diameter) were harvested from human mediastinal fat obtained from patients during cardiac surgery enrolled in the Risk of Oxygen during Cardiac Surgery (ROCS) randomized clinical trial with essential hypertension (BP>140/90 mmHg) and normotensive subjects as previously described for Western blot analysis of SOD2 and SOD2 acetylation. Full informed consent was obtained for all tissue samples.
Hypertension is associated with inactivation of mitochondrial deacetylase Sirt3 and hyperacetylation of mitochondrial superoxide dismutase (SOD2). To study the potential role of mitochondrial isoLGs in Sirt3 inactivation, we developed the mitochondria-targeted isoLG scavenger mito2HOBA (FIG. 8B). Mito2HOBA selectively accumulates in the mitochondria due to its lipophilic cation triphenylphosphonium. […]

[6] abbreviates: kidney and heart mitochondria, drinking water 0.1 g/L for 5-days.

Procedure for complex I/complex II: Three months old C57BL/6J mice (25-28 g) were supplemented with mito2HOBA (drinking water, 0.1 g/L) for 72 hours prior to LPS injection (25 μg/g). Complex I/Complex II activity ratio is expressed as a % compared to Control (100%). […] Data are mean±STD *P<0.01 vs LPS (n=6), *P<0.01 vs LPS (n=10).
Forty C57BL/6J 3-month old mice were equally divided in four groups: Sham (Control), LPS-injected mice (LPS), mice supplemented with mito2HOBA (0.1 g/Liter) in the drinking water (mito2HOBA), and LPS-injected mice pretreated with mito2HOBA in the drinking water (LPS+mito2HOBA). […]
Mitochondrial complex I and complex II activities were evaluated after 24 hours of LPS injection as described above. […]
Respiration rates were measured using Fluorescence Lifetime Micro Oxygen Monitoring System (Instech Laboratories, Inc.). […] OXPHOS specific enzyme activities in submitochondrial particles (SMP) were measured using a Varian Cary 300 Bio UV/Vis spectrophotometer with temperature controlling cell holder. […] Complex I activity was monitored in triplicate samples as the reduction of 10 μM decylubiquinone at 272 nm by 15 μg of mitochondrial protein with 40 μM NADH. […] Complex II activity was measured by monitoring the absorbance at 600 nm during the oxidation of 50 μM DCPIP as artificial electron acceptor by 65 μM ubiquinone in presence of 2 mM KCN and 2 μg/ml rotenone and antimycin A.

For `NCc1ccc(OCCCC[P+](c2ccccc2)(c2ccccc2)c2ccccc2)cc1O` [mito2HOBA], the “SOD2 acetylation in aortas” value in data set [1] (% compared to control mice, Ang II plus mito2HOBA) was found to be 147%. The “CypD acetylation in aortas” value in data set [1] (% compared to control, Ang II plus mito2HOBA) is reported as 156%. The “hyperacetylation of mitochondrial proteins in aortas” value in data set [1] (Ang II 14 days, mito2HOBA 0.1 g/L (Ang II alone 420%)) is “normalized”. Besides, in data set [1] (Ang II plus mito2HOBA), the “isoLG-complex I NDUFS1 subunit adduct levels” value is reported as “reduced” and the “mitochondrial isoLG adducts in aortic mitochondria” value is given as “inhibited formation”. In “Water solubility”, the water solubility result is given as “water-soluble”. Further, the “complex I/complex II activity ratio” value with complex I/complex II was “completely preserved”. Besides, in data set [2], the cardiolipin oxidation entry is given as “inhibited”. Besides, the “increase of animal survival” value in data set [3] (96 hours post-injection of LPS 25 μg/g, mito2HOBA 0.1 g/L drinking water) came to 3 fold. In addition, the “reduction of animal immediate and extended mortality” value in data set [3] (LPS model of sepsis, mito2HOBA supplementation) was found to be 3 fold. In data set [4] (setting [6]), the “level in the mitochondrial fraction” value was “μM levels” and the “share accumulated in the mitochondrial fraction” value was found to be 80%. Moreover, in data set [4] (kidney, heart and liver), the “accumulation in the mitochondria of multiple organs” value is recorded as “robustly accumulated”. Also, in data set [5], the SOD2 acetylation result is recorded as “significantly reduced”.
